According to ChEMBL document CHEMBL1134668, “Hydrazinonaphthalene and azonaphthalene thrombopoietin mimics are nonpeptidyl promoters of megakaryocytopoiesis” (J Med Chem, 2001):

Key:
Thrombopoietin receptor = target: T1, Thrombopoietin receptor (Homo sapiens, UniProt P40238); experiment: Effective concentration for thrombopoietin luciferase activity was determined in BAF-3 cells; assay type: cell-based, BaF3
T1 sequence (P40238 whole entry): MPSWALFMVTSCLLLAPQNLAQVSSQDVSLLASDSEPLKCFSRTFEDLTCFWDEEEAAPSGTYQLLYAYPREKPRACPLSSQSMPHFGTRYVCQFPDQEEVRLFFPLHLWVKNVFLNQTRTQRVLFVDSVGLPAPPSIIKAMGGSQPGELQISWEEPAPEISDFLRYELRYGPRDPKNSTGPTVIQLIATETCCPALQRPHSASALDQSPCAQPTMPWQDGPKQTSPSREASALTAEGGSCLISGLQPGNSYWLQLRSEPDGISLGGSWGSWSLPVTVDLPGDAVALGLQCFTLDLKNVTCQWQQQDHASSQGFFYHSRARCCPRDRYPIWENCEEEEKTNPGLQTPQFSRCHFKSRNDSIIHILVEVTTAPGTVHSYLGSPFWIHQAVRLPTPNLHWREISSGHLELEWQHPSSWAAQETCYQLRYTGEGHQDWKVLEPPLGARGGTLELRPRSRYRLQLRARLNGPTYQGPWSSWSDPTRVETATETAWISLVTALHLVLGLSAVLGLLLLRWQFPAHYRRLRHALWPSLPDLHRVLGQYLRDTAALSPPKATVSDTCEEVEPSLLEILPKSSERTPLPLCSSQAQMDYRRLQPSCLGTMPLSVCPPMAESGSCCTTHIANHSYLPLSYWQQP

[1] = target: T2, Thrombopoietin receptor (Homo sapiens) (UniProt P40238); experiment: Thrombopoietin luciferase activity in BAF-3 cells; assay type: cell-based; details: BaF3
T2 sequence (whole entry): T1 sequence (P40238 whole entry)

Row | EC50 (Thrombopoietin receptor) [nM] | Efficacy [1] [%] | SMILES
1 | 2000 | 47 | Cc1ccc(-n2[nH]c(C)c(/N=N/c3c(O)cc(C(=O)O)c4ccccc34)c2=O)cc1
2 | 8000 | 19 | Cc1[nH]n(-c2ccccc2[N+](=O)[O-])c(=O)c1/N=N/c1c(O)cc(S(=O)(=O)O)c2ccccc12
3 | 5000 | 16 | O=S(=O)(O)c1cc(O)c(/N=N/c2c(O)cc(O)c3ccccc23)c2ccccc12
4 |  | < 5 | Cc1[nH]n(CCO)c(=O)c1/N=N/c1c(O)cc(S(=O)(=O)O)c2ccccc12
5 | 300 | 85 | COc1ccc2ccc(O)c(/N=N/c3c(O)cc(S(=O)(=O)O)c4ccccc34)c2c1
6 | 100 | 95 | Cc1ccc(-n2[nH]cc(/N=N/c3c(O)cc(S(=O)(=O)O)c4ccccc34)c2=O)cc1C
7 | 300 | 72 | Cc1ccc(-n2[nH]c(C(C)(C)C)c(/N=N/c3c(O)cc(S(=O)(=O)O)c4ccccc34)c2=O)cc1C
8 | 1000 | 24 | Cc1ccc(-n2[nH]c(C)c(/N=N/c3c(O)cc(C(=O)O)c4ccccc34)c2=O)cc1C
9 | 500 | 39 | Cc1[nH]n(-c2ccc(F)cc2)c(=O)c1/N=N/c1c(O)cc(S(=O)(=O)O)c2ccccc12
10 |  | < 5 | Cc1n[nH]c(O)c1/N=N/c1c(O)cc(S(=O)(=O)O)c2ccccc12
11 | 200 | 61 | O=S(=O)(O)c1cc(O)c(/N=N/c2c(O)c3ccccc3c3ccccc23)c2ccccc12
12 |  | < 5 | Cc1[nH]n(C(C)(C)C)c(=O)c1/N=N/c1c(O)cc(S(=O)(=O)O)c2ccccc12
13 | 2000 | 26 | Cc1[nH]n(-c2ccccc2)c(=O)c1/N=N/c1c(O)cc(S(=O)(=O)O)c2ccccc12
14 |  | < 5 | O=S(=O)(O)c1cc(O)c(/N=C/c2c(O)ccc3ccccc23)c2ccccc12
15 | 10000 | 48 | O=C(O)c1cc2ccccc2c(/N=N/c2c(O)cc(S(=O)(=O)O)c3ccccc23)c1O
16 |  | < 5 | Cc1[nH]n(-c2cc(S(=O)(=O)O)ccc2Cl)c(=O)c1/N=N/c1c(O)cc(S(=O)(=O)O)c2ccccc12
17 | 400 | 63 | Cc1[nH]n(-c2ccc([N+](=O)[O-])cc2)c(=O)c1/N=N/c1c(O)cc(S(=O)(=O)O)c2ccccc12
18 |  | < 5 | O=[N+]([O-])c1cc(O)c(/N=N/c2c(O)ccc3ccccc23)c2ccccc12
19 | 5000 | 87 | CC(C)(C)c1ccc(-n2[nH]c(N)c(/N=N/c3c(O)cc(S(=O)(=O)O)c4ccccc34)c2=O)cc1
20 | 3000 | 18 | Cc1[nH]n(-c2ccc(S(C)(=O)=O)cc2)c(=O)c1/N=N/c1c(O)cc(S(=O)(=O)O)c2ccccc12
21 | 70 | 71 | Cc1[nH]n(-c2cccc(C(C)(C)C)c2)c(=O)c1/N=N/c1c(O)cc(S(=O)(=O)O)c2ccccc12
22 |  | < 5 | Cc1[nH]n(-c2ccc(S(=O)(=O)O)cc2)c(=O)c1/N=N/c1c(O)cc(S(=O)(=O)O)c2ccccc12
23 |  | < 5 | Cc1[nH]n(-c2ccc(O)cc2)c(=O)c1/N=N/c1c(O)cc(S(=O)(=O)O)c2ccccc12
24 | 2000 | 16 | O=S(=O)(O)c1cc(O)c(/N=N/c2c(O)ccc3cc(O)ccc23)c2ccccc12
25 |  | < 5 | Cc1[nH]n(-c2ccc(C(=O)O)cc2)c(=O)c1/N=N/c1c(O)cc(S(=O)(=O)O)c2ccccc12
26 | 7000 | 24 | Cc1[nH]n(-c2ccccn2)c(=O)c1/N=N/c1c(O)cc(S(=O)(=O)O)c2ccccc12
27 | 200 | 32 | CC(C)(C)OC(=O)c1[nH]n(-c2ccc(C(C)(C)C)cc2)c(=O)c1/N=N/c1c(O)cc(S(=O)(=O)O)c2ccccc12

Row | EC50 (Thrombopoietin receptor) [nM] | Efficacy [1] [%] | SMILES
28 | > 30000 | 6 | Cc1[nH]n(-c2ccccc2Cl)c(=O)c1/N=N/c1c(O)cc(S(=O)(=O)O)c2ccccc12
29 | 10000 | 30 | Cc1ccccc1-n1[nH]c(C)c(/N=N/c2c(O)cc(S(=O)(=O)O)c3ccccc23)c1=O
30 | 2000 | 31 | O=S(=O)(O)c1cc(O)c(/N=N/c2c(O)ccc3ccc(O)cc23)c2ccccc12
31 | 2000 | 26 | O=S(=O)(O)c1cc(O)c(/N=N/c2c(O)c(O)cc3ccccc23)c2ccccc12
32 |  | < 5 | O=C(O)c1cccc2c(/N=N/c3c(O)cc(S(=O)(=O)O)c4ccccc34)c(O)ccc12
33 |  | < 5 | O=S(=O)(O)c1cc(O)c(/N=N/c2ccc(O)c3ccc(O)cc23)c2ccccc12
34 |  | < 5 | O=S(=O)(O)c1cc(O)c(NCc2c(O)ccc3ccccc23)c2ccccc12
35 |  | < 5 | CC(C)(C)c1ccc(-n2[nH]c(C(=O)O)c(/N=N/c3c(O)cc(S(=O)(=O)O)c4ccccc34)c2=O)cc1
36 | 3000 | 28 | Cc1ccc(O)c(/N=N/c2c(O)cc(S(=O)(=O)O)c3ccccc23)c1
37 | 2000 | 56 | CCOC(=O)c1[nH]n(-c2ccc(C(C)(C)C)cc2)c(=O)c1/N=N/c1c(O)cc(S(=O)(=O)O)c2ccccc12
38 | 700 | 34 | Cc1cccc(-n2[nH]c(C)c(/N=N/c3c(O)cc(S(=O)(=O)O)c4ccccc34)c2=O)c1
39 | 70 | 87 | O=S(=O)(O)c1cc(O)c(/N=N/c2ccc3ccccc3c2O)c2ccccc12
40 |  | < 5 | Oc1ccc2ccccc2c1/N=N/c1c(O)ccc2ccccc12
41 | 900 | 92 | Cc1ccc(-n2[nH]c(-c3ccccc3)c(/N=N/c3c(O)cc(S(=O)(=O)O)c4ccccc34)c2=O)cc1C
42 | 200 | 34 | Cc1[nH]n(-c2ccc(OCc3ccccc3)cc2)c(=O)c1/N=N/c1c(O)cc(S(=O)(=O)O)c2ccccc12
43 | 5000 | 21 | Cc1[nH]n(-c2ccccc2)c(=O)c1/N=N/c1c(O)cc(C(=O)O)c2ccccc12
44 |  | < 5 | Cc1[nH]n(C)c(=O)c1/N=N/c1c(O)cc(S(=O)(=O)O)c2ccccc12
45 | 3000 | 19 | COc1cc(O)c2ccccc2c1/N=N/c1c(O)cc(S(=O)(=O)O)c2ccccc12
46 |  | < 5 | Cc1[nH]n(-c2cc(Cl)c(S(=O)(=O)O)cc2Cl)c(=O)c1/N=N/c1c(O)cc(S(=O)(=O)O)c2ccccc12
47 |  | < 5 | O=S(=O)(O)c1ccc(/N=N/c2c(O)ccc3ccccc23)c2ccccc12
48 | 600 | 80 | CCOc1nn(-c2ccc(C)c(C)c2)c(O)c1/N=N/c1c(O)cc(S(=O)(=O)O)c2ccccc12
49 |  | < 5 | O=C(Nc1c(O)cc(S(=O)(=O)O)c2ccccc12)c1c(O)ccc2ccccc12
50 | 70 | 100 | Cc1[nH]n(-c2ccc(C(C)C)cc2)c(=O)c1/N=N/c1c(O)cc(S(=O)(=O)O)c2ccccc12
51 | 300 | 28 | Cc1[nH]n(-c2cccc([N+](=O)[O-])c2)c(=O)c1/N=N/c1c(O)cc(S(=O)(=O)O)c2ccccc12
52 | 10000 | 25 | CCNS(=O)(=O)c1cccc(-n2[nH]c(C)c(/N=N/c3c(O)cc(S(=O)(=O)O)c4ccccc34)c2=O)c1
53 | > 30000 | 32 | Cc1[nH]n(Cc2ccccc2)c(=O)c1/N=N/c1c(O)cc(S(=O)(=O)O)c2ccccc12
